# In article PMC8765460 (Antimicrobial Agents and Chemotherapy, 2022):
# Read-outs that look alike come from different tables or passages of the source.
# Key:
# HIV-1 [1] = conditions: 12 participants switched at week 48
# Description: Confirmed virologic withdrawal criteria were defined as 2 consecutive measurements with a decrease in plasma HIV-1 RNA of <1.0 log10 copies/mL by week 16 (unless HIV-1 RNA levels were <400 copies/mL), plasma HIV-1 RNA levels of ≥400 copies/mL at or after week 24, or plasma HIV-1 RNA levels of ≥400 copies/mL after confirmed HIV-1 RNA levels of <400 copies/mL. Participants who met CVW criteria were withdrawn from the study. For this ad hoc assessment carried out after the week 48 analysis, participants with available data through 12 September 2019 were included.
# [2] = system: recombinant viruses containing participant-derived integrase sequences; conditions: for Fold change in dolutegravir sensitivity: fold change in IC50 relative to wild-type, clinical cutoff 4.0
# Description: HIV-1 genotyping and phenotyping of plasma samples at baseline and the first sample of the 2 required to meet CVW criteria were conducted by Monogram Biosciences (South San Francisco, CA) using PhenoSense Integrase, PhenoSense GT, and GeneSeq Integrase assays, with the PhenoSense GT Plus Integrase assay used as a backup alternative in case of initial resistance assay failure.
# HIV-1 [3] = system: HIV-1; design: method as in PMID 30732940; conditions: cited from earlier work
# [4] = system: HIV-1 variant clones (participant-derived integrase); assay: Clonal integrase phenotyping of variant clones (Monogram Biosciences); assay type: cell-based; conditions: fold change in IC50 relative to wild-type
# [5] = biological target: R263K integrase-DNA complex (Human immunodeficiency virus type 1 group M subtype B, UniProt P04585, R1410K); assay: Dissociation of 3H-labeled INSTIs from integrase-DNA complexes (scintillation proximity assay); assay type: binding, HIV-1; conditions: for t1/2 (dissociative half-life): ln 2 divided by mean koff
# Description: (§1) Dissociation of INSTIs from integrase-DNA complexes was evaluated as previously described ([35]). Briefly, biotinylated viral long-terminal-repeat DNA duplexes were prepared and attached to streptavidin-coated scintillation proximity assay imaging beads. Wild-type and R263K, G118R, or G118R/E138K mutant integrase-DNA-bead complexes were formed, and unbound protein was removed. […] Relative binding (RB) was calculated as the ratio of dissociation signal to high signal and fit with the equation RB = EP + ΔRB(e^−^k^off^t), where EP is the RB endpoint, koff is the dissociation rate constant, ΔRB is the change in RB, and t is time, using the SigmaPlot program (Systat Software, San Jose, CA).
# [6] = biological target: G118R integrase-DNA complex (Human immunodeficiency virus type 1 group M subtype B, UniProt P04585, G1265R); assay: as above; assay type: binding, HIV-1; conditions: for t1/2 (dissociative half-life): ln 2 divided by mean koff
# Description: as §1
# [7] = biological target: G118R/E138K integrase-DNA complex (Human immunodeficiency virus type 1 group M subtype B, UniProt P04585, E1285K/G1265R); assay: as above; assay type: binding, HIV-1; conditions: for t1/2 (dissociative half-life): G118R, E138K integrase-DNA complex, ln 2 divided by mean koff
# Description: as §1
# [8] = biological target: T1, wild-type integrase-DNA complex (Human immunodeficiency virus type 1 group M subtype B, UniProt P04585); assay: as above; assay type: binding, HIV-1; conditions: for t1/2 (dissociative half-life): Wild-type integrase-DNA complex, ln 2 divided by mean koff; for koff: read-out: koff (mean ± SD)
# Description: as §1
# [9] = biological target: T1, wild-type integrase-DNA complex; conditions: cited from earlier work
# [10] = patient 1, Baseline, R263K clones (3 clones)
# [11] = patient 1, Baseline, Wild-type clones (5 clones)
# [12] = patient 1, CVW (wk 36), Wild-type clones (8 clones)
# [13] = patient 2, Baseline, T66I clone (1 clone)
# [14] = patient 2, Baseline, Wild-type clones (7 clones)
# [15] = patient 2, CVW (wk 36), G118R clones (8 clones)
# [16] = patient 3, Baseline, Wild-type clones (16 clones)
# [17] = patient 3, CVW (wk 48), G118R, E138K, R263K clones (13 clones)
# [18] = patient 3, CVW (wk 48), H51Y, G118R clones (3 clones)
smiles,measurement,setting,value
"C[C@@H]1CCO[C@H]2Cn3cc(C(=O)NCc4ccc(F)cc4F)c(=O)c(O)c3C(=O)N12 [Dolutegravir, dolutegravir]",INSTI resistance in participants who switched from ritonavir-boosted lopinavir to the dolutegravir regimen,HIV-1 [1],None of the 12 participants
same,change in in vitro dolutegravir resistance versus baseline levels,[2]; 6 participants with treatment-emergent INSTI resistance-associated substitutions,> 10 fold
same,median fold change in dolutegravir susceptibility at CVW,[2]; participants with treatment-emergent integrase substitutions (6 participants),25
same,Fold change in dolutegravir sensitivity,"[2]; patient 1, Baseline, subtype C, INSTI mutation R263R/K",1.03
same,Fold change in dolutegravir sensitivity,"[2]; patient 1, Wk 36 (CVW), no INSTI mutation",0.79
same,Fold change in dolutegravir sensitivity,"[2]; patient 2, Baseline, subtype B",1.02
same,Fold change in dolutegravir sensitivity,"[2]; patient 2, Wk 36 (CVW), G118R",30
same,Fold change in dolutegravir sensitivity,"[2]; patient 3, Baseline, subtype C",1.26
same,Fold change in dolutegravir sensitivity,"[2]; patient 3, Wk 48 (CVW), H51H/Y, G118R, E138E/K, 263R/K",15
same,Fold change in dolutegravir sensitivity,"[2]; patient 4, Baseline, subtype A1, L74I",0.93
same,Fold change in dolutegravir sensitivity,"[2]; patient 4, Wk 48 (CVW), L74I, G118G/R, E138E/K, 148Q/R, R263R/K",20
same,Fold change in dolutegravir sensitivity,"[2]; patient 5, Baseline, subtype Complex",0.59
same,Fold change in dolutegravir sensitivity,"[2]; patient 5, Wk 60 (CVW), E138K, G140S, Q148H, N155H",>106.45
same,Fold change in dolutegravir sensitivity,"[2]; patient 6, Baseline, subtype C, L74L/I",0.6
same,Fold change in dolutegravir sensitivity,"[2]; patient 6, Wk 72 (CVW), T66T/I, L74I, G118R, E138E/K",22
same,Fold change in dolutegravir sensitivity,"[2]; patient 7, Baseline, subtype C",0.98
same,Fold change in dolutegravir sensitivity,"[2]; patient 7, Wk 168 (CVW), G118R",28
same,participants meeting CVW who developed treatment-emergent genotypic and phenotypic INSTI resistance,HIV-1 [3]; through the week 48 analysis,2 of 11
same,virologic suppression (HIV-1 RNA levels of <50 copies/mL) versus comparator,"HIV-1 [3]; week 48, both in combination with 2 NRTIs",superiority to ritonavir-boosted lopinavir
same,Fold change in median drug sensitivity,[4]; [10],1.81
same,Fold change in median drug sensitivity,[4]; [11],0.87
same,Fold change in median drug sensitivity,[4]; [12],0.77
same,Fold change in median drug sensitivity,[4]; [13],0.33
same,Fold change in median drug sensitivity,[4]; [14],0.93
same,Fold change in median drug sensitivity,[4]; [15],30.5
same,Fold change in median drug sensitivity,[4]; [16],1.08
same,Fold change in median drug sensitivity,[4]; [17],13
same,Fold change in median drug sensitivity,[4]; [18],11
same,fold increase in dissociation rate constant (koff) relative to the wild type,[5],1.8 fold
same,t1/2 (dissociative half-life),[5],52 h
same,t1/2 (dissociative half-life),[5]; listed as dolutegravir,~50 h
same,fold increase in dissociation rate constant (koff) relative to the wild type,[6],8.6 fold
same,t1/2 (dissociative half-life),[6],10.7 h
same,t1/2 (dissociative half-life),[6]; listed as dolutegravir,~10 h
same,fold increase in dissociation rate constant (koff) relative to the wild type,[7]; G118R plus E138K integrase-DNA complex,9.0 fold
same,t1/2 (dissociative half-life),[7],10.1 h
same,t1/2 (dissociative half-life),[8],92 h
same,koff,[8],2.1e-06 ± 1e-07 s⁻¹
"Cc1nnc(C(=O)NC(C)(C)c2nc(C(=O)NCc3ccc(F)cc3)c(O)c(=O)n2C)o1 [Raltegravir, raltegravir]","t1/2 (dissociative half-life), previously measured",[9],8.8 h
same,Fold change in median drug sensitivity,[4]; [10],1.09
same,Fold change in median drug sensitivity,[4]; [11],0.88
same,Fold change in median drug sensitivity,[4]; [12],0.89
same,Fold change in median drug sensitivity,[4]; [13],0.58
same,Fold change in median drug sensitivity,[4]; [14],1.18
same,Fold change in median drug sensitivity,[4]; [15],24
same,Fold change in median drug sensitivity,[4]; [16],1.03
same,Fold change in median drug sensitivity,[4]; [17],2.03
same,Fold change in median drug sensitivity,[4]; [18],4.43
same,fold increase in dissociation rate constant (koff) relative to the wild type,[5],no change in koff
same,t1/2 (dissociative half-life),[5],9.6 h
same,fold increase in dissociation rate constant (koff) relative to the wild type,[6],3.4 fold
same,t1/2 (dissociative half-life),[6],2.7 h
same,t1/2 (dissociative half-life),[7],3.2 h
same,t1/2 (dissociative half-life),[8],9.2 h
same,koff,[8],2.1e-05 ± 2e-06 s⁻¹
